These results are taken from patent US20110269763A1, “CRTH2 receptor ligands for medicinal uses” (7TM Pharma A/S, priority 2004, published 2011).

pIC50: −log10 of the molar value. A value given as a limit tells only on which side of the number the result lay.

For orientation: pIC50 means the IC50 on a negative log10 scale, so that one unit is a factor of ten.

Experiment [1] concerns the target T1, human CRTH2 (Homo sapiens, UniProt Q9Y5Y4, V204A).
T1 sequence (Q9Y5Y4 1-395 V204A): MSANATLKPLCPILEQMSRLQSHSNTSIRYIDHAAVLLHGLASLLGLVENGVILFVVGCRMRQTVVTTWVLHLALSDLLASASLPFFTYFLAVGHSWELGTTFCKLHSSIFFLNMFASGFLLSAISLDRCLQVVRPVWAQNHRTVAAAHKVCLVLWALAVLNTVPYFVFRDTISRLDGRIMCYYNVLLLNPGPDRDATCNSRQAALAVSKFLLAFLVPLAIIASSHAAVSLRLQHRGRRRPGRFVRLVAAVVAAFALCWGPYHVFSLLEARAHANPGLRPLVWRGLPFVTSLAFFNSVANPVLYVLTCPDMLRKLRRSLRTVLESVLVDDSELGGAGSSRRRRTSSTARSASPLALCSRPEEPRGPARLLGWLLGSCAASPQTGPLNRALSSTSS
Put plainly: Receptor binding assay: [3H]PGD2 competition binding on whole COS-7 cells transiently transfected with CRTH2 (also stable HEK293 cells). Also on record: expressed in transfected cells; host or cells: COS-7 (transient, calcium phosphate). In outline:
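Whole COS-7 cells transiently transfected with human CRTH2 (calcium phosphate), or stable HEK293 cells, competed against 0.1 nM [3H]PGD2 in HBSS/10 mM HEPES with 1% DMSO, 3 h at 4 °C. Nonspecific binding with 10 μM PGD2; scintillation counting, duplicates. IC50 from curve fitting.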

The target of experiment [2] is T1, human CRTH2. Put plainly: Functional antagonist BRET assay on HEK293 cells stably expressing human CRTH2-Rluc and GFP2-β-arr2. In kind it is cell-based. The note with it: read-out: Antag. IC50. Also noted: expressed in transfected cells. An outline of the steps:
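Cells (2×10^6/mL in D-PBS with glucose) were preincubated 15 min with antagonist at 1% DMSO, then agonist and DeepBlueC were co-injected. Emission at 400 and 515 nm was read 5 s later, and the mBRET ratio (515/400 nm) was used to derive IC50 from concentration–response curves.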
For orientation: BRET reads energy transfer from a luciferase to a nearby fluorophore.

Where [3] appears, read: competition with 0.1 nM [3H]PGD2, whole cells, 3 h at 4° C.
Setting [4] is: BRET, antagonist incubated 15 minutes prior to agonist.
Where [5] appears, read: receptor binding assay, Table 3.
The mark [6] stands for this setting: functional antagonist assay, Table 3.

`O=C(O)COc1ccc(-c2ccc(Cl)cc2)cc1C(=O)c1cnn(-c2ccccc2)c1` [D9, [4′-Chloro-3-(1-phenyl-1H-pyrazole-4-carbonyl)biphenyl-4-yloxy]acetic acid]: the pIC50 in experiment [1] (setting [3]) and in experiment [2] (setting [4]) was > 6.30 each time.

Turning to `CCCCc1ccc(OCC(=O)O)c(C(=O)c2cnn(-c3ccccc3)c2)c1` [D75, [4-Butyl-2-(1-phenyl-1H-pyrazole-4-carbonyl)phenoxy]acetic acid], the values for the pIC50 in experiment [1] (setting [3]) and in experiment [2] (setting [4]) were > 6.30 and < 5.30, respectively.

As for `O=C(O)COc1ccc(Br)cc1C=NNc1cccc2cccnc12` [D150], the pIC50 in experiment [1] (setting [3]) is > 6.30; in experiment [2] (setting [4]), < 5.30.

`O=C(O)COc1ccc(Br)cc1C(=O)c1cnn(-c2cccc(C(F)(F)F)c2)c1` [D25, 4-Bromo-2-[1-(3-trifluoromethylphenyl)-1H-pyrazole-4-carbonyl]phenoxyacetic acid]: the pIC50 in experiment [1] (setting [3]) and in experiment [2] (setting [4]) was > 6.30 throughout.

Turning to `O=C(O)COc1ccc(Br)cc1C(=O)c1cnn(-c2cc(Cl)ccc2Cl)c1` [D59, {4-Bromo-2-[1-(2,5-dichlorophenyl)-1H-pyrazole-4-carbonyl]phenoxy}acetic acid], the negative logarithm of the IC50 (pIC50) in experiment [1] (setting [3]) and in experiment [2] (setting [4]) was > 6.30 in each case.

With `O=C(O)COc1ccccc1C=NNC(=O)c1ccnc(-c2ccccc2)c1` [D155], the results for the negative logarithm of the IC50 (pIC50) in experiment [1] (setting [3]) and in experiment [2] (setting [4]) were > 6.30 and 5.30 to 6.30, respectively.

Turning to `CC(Oc1ccc(Br)cc1C(=O)c1cnn(-c2c(Cl)cc(Cl)cc2Cl)c1)C(=O)O` (stereo not drawn) [D68, 2-{4-Bromo-2-[1-(2,4,6-trichlorophenyl)-1H-pyrazole-4-carbonyl]phenoxy}propionic acid], the pIC50 in experiment [1] (setting [3]) and in experiment [2] (setting [4]) was > 6.30 each time.

For the molecule `O=C(O)COc1ccc(Br)cc1C(=O)c1cnn(-c2cccc3ccccc23)c1` [D82, [4-Bromo-2-(1-naphthalen-1-yl-1H-pyrazole-4-carbonyl)phenoxy]acetic acid], the pIC50 in experiment [1] (setting [3]) and in experiment [2] (setting [4]) was > 6.30 in each case.

For `N#Cc1ccccc1-n1cc(C(=O)c2cc(Br)ccc2OCC(=O)O)cn1` [D40, {4-Bromo-2-[1-(2-cyano-phenyl)-1H-pyrazole-4-carbonyl]phenoxy}acetic acid], the pIC50 in experiment [1] (setting [3]) and in experiment [2] (setting [4]) was > 6.30 throughout.

`O=C(O)COc1ccc(Br)cc1-c1nc(-c2c(Cl)cccc2Cl)no1` [D110, {4-Bromo-2-[3-(2,6-dichlorophenyl)-[1,2,4]oxadiazol-5-yl]phenoxy}acetic acid]: the pIC50 in experiment [1] (setting [5]) and in experiment [2] (setting [6]) was > 6.30 each time.

As for `CC(=O)Nc1ccc(Cc2noc(-c3cc(Br)ccc3OCC(=O)O)n2)cc1` [D131, {2-[3-(4-Acetylaminobenzyl)-[1,2,4]oxadiazol-5-yl]-4-bromophenoxy}acetic acid], the pIC50 in experiment [1] (setting [5]) and in experiment [2] (setting [6]) was > 6.30 each time.

As for `C[C@H](Oc1ccc(Br)cc1C(=O)c1cnn(-c2ccccc2)c1)C(=O)O` [(S)-D37, 2(S)-[4-Bromo-2-(1-phenyl-1H-pyrazole-4-carbonyl)-phenoxy]-propionic acid], the pIC50 in experiment [1] (setting [3]) and in experiment [2] (setting [4]) was > 6.30 each time.

For the molecule `O=C(O)COc1c(Cl)cc(Cl)cc1C(=O)c1cnn(-c2ccccc2)c1` [D13, [2,4-Dichloro-6-(1-phenyl-1H-pyrazole-4-carbonyl)phenoxy]acetic acid], the pIC50 in experiment [1] (setting [3]) and in experiment [2] (setting [4]) was < 5.30 in each case.

With `O=C(O)COc1ccc([N+](=O)[O-])cc1C(=O)c1cnn(-c2ccc(Cl)cc2)c1` [D19, 4-Nitro-2-[1-(4-chlorophenyl)-1H-pyrazole-4-carbonyl]phenoxyacetic acid], the negative logarithm of the IC50 (pIC50) in experiment [1] (setting [3]) and in experiment [2] (setting [4]) was > 6.30 each time.

In the case of `O=C(O)COc1ccc(Br)cc1-c1nc(Cc2c(Cl)cccc2Cl)no1` [D121, {4-Bromo-2-[3-(2,6-dichloro-benzyl)-[1,2,4]oxadiazol-5-yl]-phenoxy}-acetic acid], the pIC50 in experiment [1] (setting [5]) and in experiment [2] (setting [6]) was > 6.30 each time.
